Assay results as given in patent publication US8470850B2, “Inhibitors of VEGF receptor and HGF receptor signalling” (MethylGene Inc., priority 2004, dated 2013).

Assays:
VEGF receptor KDR = biological target: T1, VEGF receptor KDR (Homo sapiens, UniProt P35968); assay: In vitro receptor tyrosine kinase assay (DELFIA), VEGF receptor KDR; format: biochemical; settings: ATP 0.6 uM; enzyme 5 nM; read-out: VEGF (enz.) (IC50)
T1 construct: made in house; host or cells: Sf9 cells (Spodoptera frugiperda), recombinant baculovirus
Text: In the case of VEGF receptor KDR a 1.6-kb cDNA corresponding to the catalytic domain of VEGFR2 or KDR (Genbank accession number AF035121 amino acid 806 to 1356) was cloned into the Pst I site of the pDEST20 gateway vector (Invitrogen) for the production of a GST-tagged version of that enzyme.
The GST-VEGFR2806-1356 protein was expressed in Sf9 cells (Spodoptera frugiperda) upon infection with recombinant baculovirus construct.
The supernatant was loaded onto a GST-agarose column (Sigma) equilibrated with PBS pH 7.3. Following a four column volume (CV) wash with PBS pH 7.3+1% Triton X-100 and 4 CV wash with buffer B (50 mM Tris pH 8.0, 20% glycerol and 100 mM NaCl), bound proteins were step eluted with 5 CV of buffer B supplemented with 5 mM DTT and 15 mM glutathion. […] Final GST-VEGFR2806-1356 protein preparations concentrations were about 0.7 mg/ml with purity approximating 70%.

[1] = biological target: TPR-MET fusion protein (MNNGHOS cell line) (Homo sapiens, UniProt P08581); assay: C-Met phosphorylation cell-based assay; settings: read-out: C-Met cell-based Y1230-34-35 tpr-met inhibition (IC50); MNNGHOS cells; compounds 3 hours prior to cell lysis
Description: This test measures the ability of compounds to inhibit HGF stimulated auto-phosphorylation of the c-Met/HGF receptor itself in a whole cell system.
MNNGHOS cell line expressing TPR-MET fusion protein were purchased from ATCC.
Inhibitor of c-Met formulated as 30 mM stocks in DMSO. For MNNGHOS treatments, cells, compounds were added to tissue culture media at indicated doses for 3 hours prior to cell lysis.
Lysate were separated on 5-20% PAGE-SDS and immunoblots were performed using Immobilon P polyvinylidene difluoride membranes (Amersham) according to the manufacturer's instructions for handling. The blots were washed in Tris-buffered saline with 0.1% Tween 20 detergent (TBST). […] Signal was quantitated by densitometry on Alpha-Imager.

[2] = biological target: recombinant human c-Met/HGF receptor (Homo sapiens, UniProt P08581); assay: In vitro receptor tyrosine kinase assay (DELFIA), c-Met/HGF receptor; settings: read-out: C-Met (enz.) (IC50); ATP 10 uM; enzyme 25 nM
Text: These tests measure the ability of compounds to inhibit the enzymatic activity of recombinant human c-Met/HGF receptor and VEGF receptor enzymatic activity.
This construct was used to generate recombinant baculovirus using the Bac-N-Blue™ system according to the manucfacturer's instructions (Invitrogen)
The c-Met IC protein was expressed in Hi-5 cells (Trichoplusia Ni) upon infection with recombinant baculovirus construct. Briefly, Hi-5 cells grown in suspension and maintained in serum-free medium (Sf900 II supplemented with gentamycin) at a cell density of about 2×10^6 cells/ml were infected with the abovementioned viruses at a multiplicity of infection (MOI) of 0.2 during 72 hours at 27° C. with agitation at 120 rpm on a rotary shaker. […] Cell pellets were frozen at −80° C. until purification was performed.
All steps described in cell extraction and purification were performed at 4° C. Frozen Hi-5 cell pellets infected with the C-Met IC recombinant baculovirus were thawed and gently resuspended in Buffer A (20 mM Tris pH 8.0, 10% glycerol, 1 μg/ml pepstatin, 2 μg/ml Aprotinin and leupeptin, 50 μg/ml PMSF, 50 μg/ml TLCK and 10 μM E64, 0.5 mM DTT and 1 mM Levamisole) using 3 mL of buffer per gram of cells. The suspension was Dounce homogenized after which it was centrifuged at 22500 g, 30 min., 4° C. The supernatant (cell extract) was used as starting material for purification of c-Met IC.
The supernatant was loaded onto a QsepharoseFF column (Amersham Biosciences) equilibrated with Buffer B (20 mM Tris pH 8.0, 10% glycerol) supplemented with 0.05M NaCl. […]
Inhibition of c-Met/HGF receptor and VEGFR/KDR was measured in a DELFIA™ assay (Perkin Elmer). […] Phosphorylated product was detected by incubation with Europium-labeled anti-phosphotyrosine MoAb. After washing the plates, bound MoAb was detected by time-resolved fluorescence in a Gemini SpectraMax reader (Molecular Devices).

U87MG = assay: In vivo solid tumor disease model, U87MG xenograft; set-up: species or system mice; settings: 15 mg/kg once daily, IP, vehicle DMSO, 10 days
Text: This test measures the capacity of compounds to inhibit solid tumor growth.
Tumor xenografts were established in the flank of female athymic CD1 mice (Charles River Inc.), by subcutaneous injection of 1×10^6U87, A431 or SKLMS cells/mouse. Once established, tumors were then serially passaged s.c. in nude mice hosts. Tumor fragments from these host animals were used in subsequent compound evaluation experiments. For compound evaluation experiments female nude mice weighing approximately 20 g were implanted s.c. by surgical implantation with tumor fragments of ˜30 mg from donor tumors. When the tumors were approximately 100 mm^3 in size (˜7-10 days following implantation), the animals were randomized a separated into treatment and control groups. Each group contained 6-8 tumor-bearing mice, each of which was ear-tagged and followed individually throughout the experiment
Mice were weighed and tumor measurements are taken by calipers three times weekly, starting on Day 1. These tumor measurements were converted to tumor volume by the well-known formula (L+W/4)^34/3π. The experiment was terminated when the control tumors reached a size of approximately 1500 mm^3. […] In addition to tumor volumes, body weight of animals were monitored twice weekly for up to 3 weeks.

T1 sequence (P35968 806-1356): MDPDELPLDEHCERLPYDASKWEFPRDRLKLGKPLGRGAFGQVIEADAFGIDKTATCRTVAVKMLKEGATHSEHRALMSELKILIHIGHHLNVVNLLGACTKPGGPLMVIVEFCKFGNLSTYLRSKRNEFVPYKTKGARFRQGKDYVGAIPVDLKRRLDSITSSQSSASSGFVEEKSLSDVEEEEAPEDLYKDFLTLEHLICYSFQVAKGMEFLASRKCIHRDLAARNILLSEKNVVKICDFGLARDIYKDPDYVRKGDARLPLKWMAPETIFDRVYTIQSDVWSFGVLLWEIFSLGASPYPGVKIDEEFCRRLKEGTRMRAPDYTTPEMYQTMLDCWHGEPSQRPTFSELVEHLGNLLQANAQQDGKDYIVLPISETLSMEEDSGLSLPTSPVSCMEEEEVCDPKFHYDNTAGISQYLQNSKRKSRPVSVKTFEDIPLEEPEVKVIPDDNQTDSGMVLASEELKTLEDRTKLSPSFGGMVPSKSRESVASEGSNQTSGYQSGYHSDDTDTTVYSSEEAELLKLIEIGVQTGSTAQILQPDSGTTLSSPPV
Chain of TPR-MET fusion protein (MNNGHOS cell line) (P08581 with tags, fused parts or gaps): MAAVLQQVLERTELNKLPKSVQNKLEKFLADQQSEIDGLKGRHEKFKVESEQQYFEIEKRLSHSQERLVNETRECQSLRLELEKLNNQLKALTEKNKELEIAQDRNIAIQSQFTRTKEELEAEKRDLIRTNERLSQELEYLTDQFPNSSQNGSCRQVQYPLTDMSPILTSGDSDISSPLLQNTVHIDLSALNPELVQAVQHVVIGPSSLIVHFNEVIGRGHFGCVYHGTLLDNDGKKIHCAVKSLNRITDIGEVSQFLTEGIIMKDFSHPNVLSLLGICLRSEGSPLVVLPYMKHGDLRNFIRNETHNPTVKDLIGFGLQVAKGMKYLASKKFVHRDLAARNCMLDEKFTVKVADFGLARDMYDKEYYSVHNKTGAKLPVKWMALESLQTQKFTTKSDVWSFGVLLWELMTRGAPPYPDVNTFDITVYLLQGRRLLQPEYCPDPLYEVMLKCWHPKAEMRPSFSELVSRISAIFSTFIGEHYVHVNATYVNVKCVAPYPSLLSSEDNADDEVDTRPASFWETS
Chain of recombinant human c-Met/HGF receptor (P08581 1078-1337): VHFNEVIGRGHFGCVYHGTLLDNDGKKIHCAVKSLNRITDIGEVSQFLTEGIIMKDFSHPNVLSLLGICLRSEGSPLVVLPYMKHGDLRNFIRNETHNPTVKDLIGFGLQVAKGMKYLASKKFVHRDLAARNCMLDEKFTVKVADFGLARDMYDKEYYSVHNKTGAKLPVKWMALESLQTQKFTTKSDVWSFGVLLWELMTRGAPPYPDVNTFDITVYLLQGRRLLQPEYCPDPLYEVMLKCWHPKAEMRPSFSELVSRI

| Molecule | IC50 (VEGF receptor KDR) [µM] | IC50 [1] [µM] | IC50 [2] [µM] | Tumor Growth Inhibition (%) (U87MG) |
| --- | --- | --- | --- | --- |
| O=C(Cc1ccccc1)NC(=S)Nc1ccc(Oc2ccnc3cc(C(=O)N4CCOCC4)sc23)c(F)c1 [Example 3] | 0.25 to 0.5 | 0.05 to 0.25 | 0.05 to 0.25 |  |
| CN1CCN(C(=O)c2cc3ncnc(Oc4ccc(NC(=S)NC(=O)Cc5ccccc5)cc4F)c3s2)CC1 [Example 24, 1-(4-(6-(4-N-Methylpiperazylcarbamoyl)thieno[3,2-d]pyrimidin-4-yloxy)-3-fluorophenyl)-3-(2-phenylacetyl)thiourea] | 0.25 to 0.5 | > 0.5 | 0.05 to 0.25 |  |
| Cn1cnnc1-c1cc2nccc(Oc3ccc(NC(=S)NC(=O)Cc4ccccc4)cc3F)c2s1 [Example 75, N-(3-Fluoro-4-(2-(4-methyl-4H-1,2,4-triazol-3-yl)thieno[3,2-b]pyridin-7-yloxy)phenylcarbamothioyl)-2-phenylacetamide] |  |  |  | d (% TGI in the range of 0-24) |
| Methyl 2-(1-(4-(2-(carbamoyl)thieno[3,2-b]pyridin-7-yloxy)-3-fluorophenyl)-3-(2-phenylacetyl)thioureido)propanoate [Example 11] | > 0.5 | 0.05 to 0.25 | 0.05 to 0.25 |  |
